Measurements from PubChem BioAssay AID1745844 (Carcinogenic Potency Database (CPDB), 2022).
Calls of active or inactive are those of the source. The rule behind the calls is not given here.

System: rodent lifetime carcinogenesis bioassay, tumor incidence TD50
Experiment: chronic cancer bioassays in animals – CPDB, compiled studies (AID 1745844)

**Q.** Which results are given for `Cc1cn([C@H]2C[C@H](N=[N+]=[N-])[C@@H](CO)O2)c(=O)[nH]c1=O`?
**A.** TD50 (mouse, strain B6C3F1, females, by gavage, site: any site (literature study), lesion: several types, types named in the paper, dosed 104 weeks, study length 104 weeks): 221 mg/kg/day; TD50 (mouse, strain B6C3F1, females, by gavage, site: liver, lesion: hepatocellular adenoma + hepatoblastoma + hepatocellular carcinoma, dosed 104 weeks, study length 104 weeks): 139 mg/kg/day; TD50 (mouse, strain B6C3F1, females, by gavage, site: lung, lesion: alveolar/bronchiolar adenoma + alveolar/bronchiolar carcinoma, dosed 104 weeks, study length 104 weeks): 510 mg/kg/day; TD50 (mouse, strain B6C3F1, females, by gavage, site: vagina, lesion: squamous-cell carcinoma + squamous-cell papilloma, dosed 104 weeks, study length 104 weeks): 209 mg/kg/day; TD50 (mouse, strain B6C3F1, females, by gavage, site: vagina, lesion: squamous-cell carcinoma, dosed 104 weeks, study length 104 weeks): 246 mg/kg/day; TD50 (mouse, strain B6C3F1, males, by gavage, site: Harderian gland, lesion: adenoma + carcinoma, dosed 104 weeks, study length 104 weeks): 458 mg/kg/day; TD50 (mouse, strain B6C3F1, males, by gavage, site: Harderian gland, lesion: adenoma, dosed 104 weeks, study length 104 weeks): 425 mg/kg/day; TD50 (mouse, strain B6C3F1, males, by gavage, site: kidney, lesion: tubule adenoma + tubule carcinoma, dosed 104 weeks, study length 104 weeks): 929 mg/kg/day; TD50 (mouse, strain B6C3F1, males, by gavage, site: kidney, lesion: tubule adenoma, dosed 104 weeks, study length 104 weeks): 1250 mg/kg/day; TD50 (mouse, strain Charles River CD1, females, by gavage, site: any site (literature study), lesion: several types, types named in the paper, dosed 95 weeks, study length 95 weeks): 131 mg/kg/day; TD50 (mouse, strain Charles River CD1, females, by gavage, site: vagina, lesion: several types, types named in the paper, dosed 95 weeks, study length 95 weeks): 508 mg/kg/day; TD50 (mouse, strain Charles River CD1, females, by gavage, site: vagina, lesion: squamous-cell carcinoma, dosed 95 weeks, study length 95 weeks): 715 mg/kg/day; carcinogen call (mouse, strain Charles River CD1, males, by gavage, site: any site (literature study), lesion: several types, types named in the paper, dosed 82 weeks, study length 82 weeks): negative (inactive); TD50 (rat, strain Charles River CD (Sprague-Dawley), females, by gavage, site: vagina, lesion: squamous-cell carcinoma, dosed 95 weeks, study length 95 weeks): 11600 mg/kg/day; carcinogen call (rat, strain Charles River CD (Sprague-Dawley), males, by gavage, site: any site (literature study), lesion: several types, types named in the paper, dosed 103 weeks, study length 103 weeks): negative (inactive)

**Q.** Which results are given for `O=[N+]([O-])c1ccc2ccc3cccc4ccc1c2c34`?
**A.** TD50 (rat, strain Fischer 344/Jcl, females, by gavage, site: all sites, lesion: mononuclear-cell leukemia, dosed 55 weeks, study length 104 weeks): 4.33 mg/kg/day; TD50 (rat, strain Fischer 344/Jcl, females, by gavage, site: clitoral gland, lesion: adenocarcinoma, dosed 55 weeks, study length 104 weeks): 157 mg/kg/day; TD50 (rat, strain Fischer 344/Jcl, females, by gavage, site: clitoral gland, lesion: several types, types named in the paper, dosed 55 weeks, study length 104 weeks): 6.16 mg/kg/day; TD50 (rat, strain Fischer 344/Jcl, females, by gavage, site: clitoral gland, lesion: squamous-cell carcinoma, dosed 55 weeks, study length 104 weeks): 6.08 mg/kg/day; TD50 (rat, strain Fischer 344/Jcl, females, by gavage, site: mammary gland, lesion: adenocarcinoma, dosed 55 weeks, study length 104 weeks): 4.82 mg/kg/day; TD50 (rat, strain Fischer 344/Jcl, females, by gavage, site: mammary gland, lesion: adenoma, dosed 55 weeks, study length 104 weeks): 51.4 mg/kg/day; TD50 (rat, strain Fischer 344/Jcl, females, by gavage, site: mammary gland, lesion: fibroadenoma, dosed 55 weeks, study length 104 weeks): 39.6 mg/kg/day; TD50 (rat, strain Fischer 344/Jcl, females, by gavage, site: mammary gland, lesion: several types, types named in the paper, dosed 55 weeks, study length 104 weeks): 3.33 mg/kg/day; TD50 (rat, strain Fischer 344/Jcl, females, by gavage, site: uterus, lesion: endometrial stromal polyp, dosed 55 weeks, study length 104 weeks): 13.1 mg/kg/day

**Q.** `NC(=S)NNS(=O)(=O)c1ccccc1` was tested. Which TD50 (mouse, strain Swiss, females, by gavage, site: liver, lesion: liver-cell tumor, dosed 50 weeks, study length 60 weeks) did it give?
**A.** 46.6 mg/kg/day

**Q.** And the TD50 (mouse, strain Swiss, females, by gavage, site: lung, lesion: one or several types, types not named, dosed 50 weeks, study length 60 weeks)?
**A.** 46.6 mg/kg/day

**Q.** Which results are given for `CC(Cc1ccccc1)NN` (stereo not given)?
**A.** carcinogen call (mouse, strain Swiss albino, females, in drinking water, site: liver, lesion: hepatoma, dosed 119 weeks, study length 127 weeks): negative (inactive); carcinogen call (mouse, strain Swiss albino, females, in drinking water, site: lung, lesion: one or several types, types not named, dosed 119 weeks, study length 127 weeks): negative (inactive); carcinogen call (mouse, strain Swiss albino, males, in drinking water, site: liver, lesion: hepatoma, dosed 100 weeks, study length 112 weeks): negative (inactive); carcinogen call (mouse, strain Swiss albino, males, in drinking water, site: lung, lesion: one or several types, types not named, dosed 100 weeks, study length 112 weeks): negative (inactive)

**Q.** `CC(C)(Oc1ccc(C2CC2(Cl)Cl)cc1)C(=O)O` (stereo not given) was tested. Which TD50 (mouse, strain C57BL/6N, males, in feed, site: liver, lesion: hepatocellular adenoma, dosed 78 weeks, study length 78 weeks) did it give?
**A.** 5.89 mg/kg/day

**Q.** And the TD50 (mouse, strain C57BL/6N, males, in feed, site: liver, lesion: hepatocellular adenoma, dosed 89 weeks, study length 91 weeks)?
**A.** 19.2 mg/kg/day

**Q.** What about the TD50 (mouse, strain C57BL/6N, males, in feed, site: liver, lesion: hepatocellular carcinoma, dosed 78 weeks, study length 78 weeks) of the same molecule?
**A.** 12.3 mg/kg/day

**Q.** And the TD50 (mouse, strain C57BL/6N, males, in feed, site: liver, lesion: hepatocellular carcinoma, dosed 89 weeks, study length 91 weeks)?
**A.** 46.4 mg/kg/day

**Q.** What about the TD50 (mouse, strain C57BL/6N, males, in feed, site: liver, lesion: several types, types named in the paper, dosed 78 weeks, study length 78 weeks) of the same molecule?
**A.** 4.17 mg/kg/day

**Q.** What about the TD50 (mouse, strain C57BL/6N, males, in feed, site: liver, lesion: several types, types named in the paper, dosed 89 weeks, study length 91 weeks) of the same molecule?
**A.** 12.1 mg/kg/day

**Q.** What about the TD50 (rat, strain Fischer 344, females, in feed, site: stomach, glandular, lesion: carcinoid tumor, malignant, dosed 104 weeks, study length 104 weeks) of the same molecule?
**A.** 531 mg/kg/day

**Q.** What about the carcinogen call (rat, strain Fischer 344, males, in feed, site: liver, lesion: hepatocellular carcinoma, dosed 60 weeks, study length 60 weeks) of the same molecule?
**A.** positive

**Q.** And the carcinogen call (rat, strain Fischer 344, males, in feed, site: liver, lesion: neoplastic nodule, dosed 60 weeks, study length 60 weeks)?
**A.** positive

**Q.** What about the carcinogen call (rat, strain Fischer 344, males, in feed, site: liver, lesion: several types, types named in the paper, dosed 60 weeks, study length 60 weeks) of the same molecule?
**A.** positive

**Q.** What about the carcinogen call (rat, strain Fischer 344, males, in feed, site: liver, lesion: several types, types named in the paper, dosed 95 weeks, study length 95 weeks) of the same molecule?
**A.** positive

**Q.** What about the TD50 (rat, strain Fischer 344, males, in feed, site: stomach, glandular, lesion: carcinoid tumor, malignant, dosed 104 weeks, study length 104 weeks) of the same molecule?
**A.** 103 mg/kg/day

**Q.** And the carcinogen call (rat, strain Fischer 344, males, in feed, site: testis, lesion: Leydig-cell tumor, dosed 95 weeks, study length 95 weeks)?
**A.** negative (inactive)

**Q.** What does the source list for `CCN(CC)CCCNC(=O)Cn1ncc(-c2ccccc2)c1-c1ccccc1`?
**A.** carcinogen call (rat, strain Charles River CD (Sprague-Dawley), females, by gavage, site: liver, lesion: one or several types, types not named, dosed 52 weeks, study length 52 weeks): negative (inactive); carcinogen call (rat, strain Charles River CD (Sprague-Dawley), males, by gavage, site: liver, lesion: one or several types, types not named, dosed 52 weeks, study length 52 weeks): negative (inactive)
